The values that follow come from patent publication US20220218679A1, “NOVEL COMPOUNDS AND PHARMACEUTICAL COMPOSITIONS THEREOF FOR THE TREATMENT OF INFLAMMATORY DISORDERS” (Galapagos NV, priority 2019, published 2022).

In data set [1] the test system is CL097 triggered IFNα release in human whole blood. Nature of the data set: Ex vivo human IFNα release inhibition (human whole blood assay). The class given is cell-based. The note with it: Homo sapiens, CL097 2 μg/mL, 3 h 30 min at 37° C. The text has this:
4.10.1. Ex Vivo Human IFNα and TNFα Release Inhibition (Human Whole Blood Assay)
The aim of the assay is to evaluate the activity of compounds of the invention on the activated TLR/IRAK-4 pathway in an ex vivo human whole blood setting. Toll-like receptors (TLRs) are pattern recognition receptors that recognize a wide variety of microbial molecules, called pathogen-associated molecular patterns (PAMPs). Human TLR7 and TLR8 recognize imidazoquinoline compounds (e.g., CL097—CAS n #1026249-18-2) and single stranded RNAs as their natural ligands. Activation of TLRs leads to the production of several cytokines (e.g., IFNα, TNFα, IL-8, IL-6) by the TLR agonist-treated cells, whereas IRAK4 leads to the production of IFNα. Cytokine release is used as readout in this assay and represents a measure for the level of inhibition of the TLR/IRAK-4 pathway by the tested compound. It should be noted that in the context of the complete organism, other sources for these cytokines exist that are not dependent on the TLR/IRAK-4 pathway, such as e.g., macrophages (upon activation of the Fcγ receptor (Yan et al., 2012)) or T cells (upon activation of the T cell receptor (Brehm et al., 2005)).
4.10.1.1. Experimental Design
Blood was collected from healthy volunteers into lithium heparin tubes by venipuncture, then gently inverted several times to prevent clotting and incubated for at least 15 min at 37° C. on a rocking mixer shaker. Then, 100 μL of blood was dispensed into polypropylene 96-well microplate and pre-incubated in duplicate with 0.3% DMSO or test compound at different concentrations (from 30 to 0.01 μM, 3-fold dilutions to get 0.3% DMSO at the final) for 15 min at 37° C. After this pre-incubation, blood was triggered with CL097 (2 μg/mL from 1 mg/mL solution in water; InvivoGen, tlrl-c97) for 3 h 30 min at 37° C. Microtubes were centrifuged at 5000×g for 10 min at 4° C. and approximately 40 μL of plasma were collected into a polystyrene 96-well plate. Plasma could be analyzed freshly, within 30 min after triggering, or frozen at −80° C. Finally, the quantification of TNFα and IFNα were performed in the plasma using AlphaLISA Kit for TNFα and IFNα according to the manufacturer's instructions and read on the Ensight (PerkinElmer).
A standard curve was created by plotting on log-log the mean […] on the y-axis against the concentration on the x-axis and a 4-parameters logistic regression (4PL) was made through the points. For each blood sample, the IFNα concentrations of the samples were determined from the fit. Data were then expressed as a percentage of inhibition (PIN) for each replicate using the formula:
With mean IFNα with CL097=mean IFNα concentration of replicate samples triggered with CL097; IFNαsample1=IFNα concentration of sample 1; mean IFNα with vehicle=mean IFNα concentration of replicate samples treated with vehicle.
Curve fitting for pIC50 determination were generated using mean PIN±sem. Graphs and pIC50 calculations were derived using Prism 5.03 software (GraphPad).

A further data set is described as follows: Thermodynamic solubility. The note with it: 37 °C, thermodynamic from solid. The class given is physicochemical. The text has this:
4.2. Thermodynamic Solubility
Poor solubility, in particular poor thermodynamic solubility can limit the absorption of compounds from the gastrointestinal tract which in turn may reduce oral bioavailability.
Thermodynamic solubility investigates the solubility of a compound as a saturated solution in equilibrium, by opposition to kinetic solubility, which measures the solubility of a metastable solution where supersaturation may occur and provide over estimation of the actual solubility of the compound. (Klein, 2010)
4.2.2. Thermodynamic Solubility—Protocol 2
In a 8 mL glass vial, 1-2 mg of dry matter of compound were added and stirred with the suitable buffers (Fed State Simulated Intestine Fluid, FeSSIF, or Fasted State Simulated Intestine Fluid, FaSSIF, or Fasted State Simulated Gastric Fluid, FaSSGF, or phosphate buffer pH 7.4) for 24 h at r.t. (for the buffer pH 7.4) or 37° C. (for the GI fluids). The concentration of the mixture was 1 mg/mL.
A volume of 1000 μL were sampled, centrifuged for 10 min at 10 000 rpm and 500 μL of the supernatant were filtered on captiva plate. The samples were diluted in duplicates in DMSO (F100 and F10). Then, a final dilution (F100) in 80/20 H2O/MeCN containing the internal standard (warfarin) was used for LCMS-MS analysis.
A standard curve was made starting from a 40,000 ng/mL stock in DMSO, freshly prepared from dry matter. Then, successive concentrations at 15,000, 11,000, 6,000, 2,500, 1,000, 375, 150 and 75 ng/mL in DMSO were prepared.
Three quality control samples were made: one of 10,000, 1,500 and 200 ng/mL in DMSO, also starting from the DMSO working stock solution at 40,000 ng/mL.
The standard curve and quality controls were diluted a F100 in 80/20 H2O/MeCN (with internal standard) and analyzed on LC/MS-MS (API4000 or API5500).
The samples were analyzed on LC-MS with a flow rate of 0.6 mL/min. The mobile phase A was 0.1% formic acid in water and the mobile phase B was 0.1% formic acid in 90% MeCN and 10% of H2O. The sample was run under positive or negative ion spray on Pursuit C18—5 μm (2.0×20 mm) column, from Agilent.
The ratio analyte/internal standard peaks areas of the standard curve were plotted in a graph and a linear or polynomial of the second order equation was used to calculate the unknown concentrations of the test compound.
Solubility values were reported in μg/mL.

Where [2] appears, read: Fasted State Simulated Gastric Fluid (FaSSGF), fassgf or other biorelevant, Fasted State Simulated Gastric Fluid, read-out: Tsol FaSSGF.
Where [3] appears, read: Fasted State Simulated Intestine Fluid (FaSSIF), fassif, Fasted State Simulated Intestine Fluid, read-out: Tsol FaSSIF.
The mark [4] stands for this setting: Fed State Simulated Intestine Fluid (FeSSIF), fessif, Fed State Simulated Intestine Fluid, read-out: Tsol FeSSIF.

Molecules are shown by their SMILES. pIC50: −log10 of the molar value. In brackets after ≈: the same amount, converted by molar mass. Like-named read-outs stand apart in the source and are kept apart here.

For `CNC(=O)c1cn2nc(C3CCOCC3)cc2cc1NC(=O)c1cccc(C(F)F)n1` [Compound 15, 5-[[6-(difluoromethyl)pyridine-2-carbonyl]amino]-N-methyl-2-tetrahydropyran-4-yl-pyrazolo[1,5-a]pyridine-6-carboxamide], in data set [1], the pIC50 was below 5.30. Also, the solubility thermodynamic at 24 h in the data set “Thermodynamic solubility” (setting [2]) and in “Thermodynamic solubility” (setting [3]) was below 0.75 µg/mL throughout.

Consider `CCOc1cn2nc(CCC(C)(C)O)cc2cc1NC(=O)c1cccn(C2CC2)c1=O` [Compound 17, 1-cyclopropyl-N-[6-ethoxy-2-(3-hydroxy-3-methyl-butyl)pyrazolo[1,5-a]pyridin-5-yl]-2-oxo-pyridine-3-carboxamide], for which the pIC50 in data set [1] was 5.30 to 6.00. The solubility thermodynamic at 24 h in “Thermodynamic solubility” (setting [2]) is 75.7 µg/mL (≈ 178 µM); in “Thermodynamic solubility” (setting [3]), 24.6 µg/mL (≈ 58 µM); in “Thermodynamic solubility” (setting [4]) it was 81 µg/mL (≈ 191 µM).

`CCOc1cn2nc(CCC(C)(C)O)cc2cc1NC(=O)c1cccn(C)c1=O` [Compound 18, N-[6-ethoxy-2-(3-hydroxy-3-methyl-butyl)pyrazolo[1,5-a]pyridin-5-yl]-1-methyl-2-oxo-pyridine-3-carboxamide] gave a pIC50 in data set [1] of 5.30 to 6.00. Moreover, the solubility thermodynamic at 24 h in “Thermodynamic solubility” (setting [2]) was 68.9 µg/mL (≈ 173 µM); in “Thermodynamic solubility” (setting [3]) it was 20.6 µg/mL (≈ 51.7 µM); in the data set “Thermodynamic solubility” (setting [4]) it was 84.1 µg/mL (≈ 211 µM).

The molecule `CNC(=O)c1cn2nc(CCC(C)(C)O)cc2cc1NC(=O)c1cccc(C(F)F)n1` [Compound 19, 5-[[6-(difluoromethyl)pyridine-2-carbonyl]amino]-2-(3-hydroxy-3-methyl-butyl)-N-methyl-pyrazolo[1,5-a]pyridine-6-carboxamide] showed a pIC50 in data set [1] of 6.00 to 6.30. The results for the solubility thermodynamic at 24 h in the data set “Thermodynamic solubility” (setting [2]), in the data set “Thermodynamic solubility” (setting [3]) and in the data set “Thermodynamic solubility” (setting [4]) were 8.26 µg/mL (≈ 19.1 µM), 12.5 µg/mL (≈ 29 µM) and 70.6 µg/mL (≈ 164 µM), respectively.

On to `CC(C)(O)CCc1cc2cc(NC(=O)c3cccc(C(F)F)n3)c(C(N)=O)cn2n1` [Compound 20, 5-[[6-(difluoromethyl)pyridine-2-carbonyl]amino]-2-(3-hydroxy-3-methyl-butyl)pyrazolo[1,5-a]pyridine-6-carboxamide], for which the pIC50 in data set [1] is 5.30 to 6.00. For the same molecule, the solubility thermodynamic at 24 h in the data set “Thermodynamic solubility” (setting [2]) was 1.62 µg/mL (≈ 3.88 µM); in “Thermodynamic solubility” (setting [3]), 3.09 µg/mL (≈ 7.4 µM).

Molecule `COc1cn2nc(CCC(C)(C)O)cc2cc1NC(=O)c1cccn(C2CCC2)c1=O` [Compound 21, 1-cyclobutyl-N-[2-(3-hydroxy-3-methyl-butyl)-6-methoxy-pyrazolo[1,5-a]pyridin-5-yl]-2-oxo-pyridine-3-carboxamide] showed a pIC50 in data set [1] of 5.30 to 6.00. In “Thermodynamic solubility” (setting [3]), the solubility thermodynamic at 24 h is 16.4 µg/mL (≈ 38.6 µM).

Turning to `COc1cn2nc(CC(F)C(C)(C)O)cc2cc1NC(=O)c1cccn(C2CC2)c1=O` (centres unmarked) [Compound 22, 1-cyclopropyl-N-[2-(2-fluoro-3-hydroxy-3-methyl-butyl)-6-methoxy-pyrazolo[1,5-a]pyridin-5-yl]-2-oxo-pyridine-3-carboxamide], the pIC50 in data set [1] is 6.00 to 6.30. For the same molecule, the solubility thermodynamic at 24 h in the data set “Thermodynamic solubility” (setting [2]) is 50.6 µg/mL (≈ 118 µM); in the data set “Thermodynamic solubility” (setting [3]) it was 14 µg/mL (≈ 32.7 µM); in the data set “Thermodynamic solubility” (setting [4]), 75.9 µg/mL (≈ 177 µM).

Regarding `[2H]C([2H])([2H])C(O)(CCc1cc2cc(NC(=O)c3cccn(C4CC4)c3=O)c(OC)cn2n1)C([2H])([2H])[2H]` [Compound 23, 1-cyclopropyl-N-[6-methoxy-2-[4,4,4-trideuterio-3-hydroxy-3-(trideuteriomethyl)butyl]pyrazolo[1,5-a]pyridin-5-yl]-2-oxo-pyridine-3-carboxamide], the pIC50 in data set [1] is 6.00 to 6.30. The solubility thermodynamic at 24 h was 104 µg/mL (≈ 250 µM) in “Thermodynamic solubility” (setting [2]), 16 µg/mL (≈ 38.4 µM) in “Thermodynamic solubility” (setting [3]) and 93 µg/mL (≈ 223 µM) in “Thermodynamic solubility” (setting [4]).

`[2H]C([2H])([2H])Oc1cn2nc(CCC(C)(C)O)cc2cc1NC(=O)c1cccn(C2CC2)c1=O` [Compound 24, 1-cyclopropyl-N-[2-(3-hydroxy-3-methylbutyl)-6-(trideuteriomethoxy)pyrazolo[1,5-a]pyridin-5-yl]-2-oxopyridine-3-carboxamide] gave a pIC50 in data set [1] of 6.30 to 10.00. Besides, the solubility thermodynamic at 24 h was 200 µg/mL (≈ 484 µM) in “Thermodynamic solubility” (setting [2]), 28.5 µg/mL (≈ 68.9 µM) in the data set “Thermodynamic solubility” (setting [3]) and 105 µg/mL (≈ 254 µM) in “Thermodynamic solubility” (setting [4]).
